{
  "source": "patent US10299467B2",
  "about": "“Animal model for type 2 diabetes and obesity” (Universitaetsklinikum Freiburg, priority 2012, dated 2019)",
  "assay_type_in_all_cases": "in vivo, mouse",
  "key": {"WAT of mice [1]": {"tested_on": "WAT of mice", "test": "β3-adrenergic agonist treatment of Ctrl and LSD1+/− mice, qRT-PCR transcript levels in WAT", "procedure": "(§1) All mice were housed in the pathogen-free barrier facility of the University Medical Center Freiburg in accordance with institutional guidelines and approved by the regional board. Mice were maintained in a temperature- and humidity-controlled animal facility with a 12-hour light/dark cycle, free access to water, and a standard rodent chow (Kliba, breeding, 3807). The high-fat diet (HFD) study was carried out with a chow containing 4.056 kcal/kg (fat: 1.600 kcal/kg and sucrose: 1.600 kcal/kg; Research Diets). HFD was given to mice at 5 weeks of age. Mice were analysed at 25 weeks of age. For cold exposure experiments, mice were maintained at 10° C. with a 12 hour light/dark cycle, free access to water, and a standard rodent chow. Animals were killed by cervical dislocation, tissues were immediately collected, weighted, frozen in liquid nitrogen or processed for further analyses. Nomenclature for dissected adipose depots was used according to Seale et al.^17. Epididymidal WAT (epWAT): prominent bilateral intra-abdominal visceral depots in male mice attached to the epididymis. Inguinal WAT (ingWAT): bilateral superficial inguinal depots between the skin and muscle fascia just anterior to the lower segment of the hind limbs. Perimuscular WAT (pmWAT): depots located on the upper part of the quadriceps muscle. Retroperitoneal WAT (rpWAT): bilateral depots in abdominal cavity behind the peritoneum on the dorsal side of the kidney. Interscapular BAT (BAT): most prominent depot of brown adipocytes in rodents, found between the scapulae. In vivo experiments including food consumption, serum analysis, glucose tolerance and insulin sensitivity tests, temperature measurements, body lean and fat contents, and energy expenditure were described^48. CL316,243 (Sigma-Aldrich) was injected intraperitoneally at 1 mg/kg.\nRNA was isolated with TRIzol Reagent (Invitrogen). […] Quantitative RT-PCR was performed using the Abgene SYBR Green PCR kit (Invitrogen) according to the supplier's protocol. Data were analysed using the standard curve method^53. […]"}, "WAT of mice [2]": {"tested_on": "WAT of mice", "test": "β3-adrenergic agonist treatment of mice, H&E staining of white adipose tissue (beige fat islets)", "procedure": "as §1, with “Retroperitoneal WAT (rpWAT): bilateral depots in abdominal cavity behind the peritoneum on the dorsal side of the kidney. Interscapular BAT (BAT): most prominent depot of brown adipocytes in rodents, found between the scapulae. In vivo experiments including food consumption, serum analysis, glucose tolerance and insulin sensitivity tests, temperature measurements, body lean and fat contents, and energy expenditure were described^48. CL316,243 (Sigma-Aldrich) was injected intraperitoneally at 1 mg/kg.” left out"}, "LSD1": {"tested_on": "LSD1", "test": "β3-adrenergic agonist treatment of mice, Western blot of LSD1 in WAT", "details": "wild-type mice, CL316,243 injected intraperitoneally at 1 mg/kg vs vehicle", "procedure": "All mice were housed in the pathogen-free barrier facility of the University Medical Center Freiburg in accordance with institutional guidelines and approved by the regional board. Mice were maintained in a temperature- and humidity-controlled animal facility with a 12-hour light/dark cycle, free access to water, and a standard rodent chow (Kliba, breeding, 3807). The high-fat diet (HFD) study was carried out with a chow containing 4.056 kcal/kg (fat: 1.600 kcal/kg and sucrose: 1.600 kcal/kg; Research Diets). HFD was given to mice at 5 weeks of age. Mice were analysed at 25 weeks of age. For cold exposure experiments, mice were maintained at 10° C. with a 12 hour light/dark cycle, free access to water, and a standard rodent chow. Animals were killed by cervical dislocation, tissues were immediately collected, weighted, frozen in liquid nitrogen or processed for further analyses. Nomenclature for dissected adipose depots was used according to Seale et al.^17. […]\nHomogenates were separated in 10% polyacrylamide gels and blotted to Hybond nitrocellulose membranes (GE Healthcare). […] Secondary antibodies conjugated to horseradish peroxidase (GE Healthcare) were detected using an enhanced chemiluminescence detection system (GE Healthcare). Protein levels were quantified using the Chemi Capt software (Peqlab)."}},
  "data": [
    {"smiles": "C[C@H](Cc1ccc2c(c1)OC(C(=O)[O-])(C(=O)[O-])O2)NC[C@H](O)c1cccc(Cl)c1.[Na+].[Na+]", "note": "[CL316,243]", "values": [
      {"measurement": "expression of white fat-selective and adipogenic markers", "setting": "WAT of mice [1]; Ctrl and LSD1+/− mice, vs vehicle", "result": "not significantly affected"},
      {"measurement": "adrenergic induction of Cidea, Prdm16, Pgc-1α, Ucp1 and beige fat-selective markers in WAT", "setting": "WAT of mice [1]; LSD1+/− mice", "result": "impaired"},
      {"measurement": "expression of Cidea, Prdm16, Pgc-1α, and Ucp1 and of beige fat-selective markers in WAT", "setting": "WAT of mice [1]; control mice, vs vehicle", "result": "significantly increases"},
      {"measurement": "clusters of beige fat cells in WAT", "setting": "WAT of mice [2]; LSD1+/− mice compared to control mice, both treated with CL316,243", "result": "fewer clusters of beige fat cells"},
      {"measurement": "beige adipocyte formation in WAT", "setting": "WAT of mice [2]; wild-type mice, CL316,243 injected intraperitoneally at 1 mg/kg vs vehicle", "result": "appearance of multilocular beige adipocytes"},
      {"measurement": "LSD1 protein levels in WAT", "setting": "LSD1", "result": "increased"}
    ]}
  ]
}
